# Biological target: P. falciparum apicoplast DNA polymerase (Pf-apPOL) (Plasmodium falciparum, UniProt Q8ILY1)
# Experiment: Fluorescence-based high-throughput DNA polymerase assay (molecular beacon), primary screen and dose-response;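 on % inhibition ApPOL 90': test concentration in µM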;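 on % inhibition apPOL 180': test concentration in µM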
# Format: biochemical
# Conditions: for DNA Pol: 90 min, 10 µM
# In short: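 Single-point screening used 10 µM compound with 20 nM polymerase, 20 nM hairpin substrate and 6 µM dNTPs for 90 min at 25 °C. Confirmatory titrations (2.5–80 µM) followed fluorescence at three times, and IC50 was derived from a fit including a cooperativity term n.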
# Chain of P. falciparum apicoplast DNA polymerase (Pf-apPOL) (Q8ILY1 entry or part of it): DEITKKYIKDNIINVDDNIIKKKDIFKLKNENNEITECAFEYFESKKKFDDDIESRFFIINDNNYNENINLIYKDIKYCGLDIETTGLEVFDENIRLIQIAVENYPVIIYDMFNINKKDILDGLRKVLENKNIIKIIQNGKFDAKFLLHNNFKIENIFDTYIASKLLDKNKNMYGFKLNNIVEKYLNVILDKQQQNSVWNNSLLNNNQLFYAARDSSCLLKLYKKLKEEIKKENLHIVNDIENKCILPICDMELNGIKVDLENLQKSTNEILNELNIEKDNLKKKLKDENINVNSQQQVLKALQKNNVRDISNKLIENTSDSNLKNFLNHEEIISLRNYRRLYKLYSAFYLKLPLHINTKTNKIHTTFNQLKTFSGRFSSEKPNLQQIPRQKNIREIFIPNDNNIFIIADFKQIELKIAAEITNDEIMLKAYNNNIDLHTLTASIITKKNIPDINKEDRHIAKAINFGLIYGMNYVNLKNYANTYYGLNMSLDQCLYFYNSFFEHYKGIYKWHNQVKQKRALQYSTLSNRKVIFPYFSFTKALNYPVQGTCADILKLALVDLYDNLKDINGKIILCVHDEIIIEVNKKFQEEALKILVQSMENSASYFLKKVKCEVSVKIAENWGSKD
smiles,measurement,setting,value
O=c1cc(-c2ccccc2Cl)oc2c(NS(=O)(=O)c3cc(Cl)cc(Cl)c3O)ccc(O)c12 [KU0104277],% inhibition Apo pol 10',"DRC-1, concentration 2.5",-4.204%
same,% inhibition Apo pol 10',"DRC-1, concentration 5",6.708%
same,% inhibition Apo pol 10',"DRC-1, concentration 10",7.439%
same,% inhibition Apo pol 10',"DRC-1, concentration 20",27.5333%
same,% inhibition Apo pol 10',"DRC-1, concentration 40",73.9275%
same,% inhibition Apo pol 10',"DRC-1, concentration 80",90.8547%
same,% inhibition Apol 90',"DRC-1, concentration 2.5",-8.287%
same,% inhibition Apol 90',"DRC-1, concentration 5",2.039%
same,% inhibition Apol 90',"DRC-1, concentration 10",0.6918%
same,% inhibition Apol 90',"DRC-1, concentration 20",20.1462%
same,% inhibition Apol 90',"DRC-1, concentration 40",69.1951%
same,% inhibition Apol 90',"DRC-1, concentration 80",87.9641%
same,% inhibition apPOL 180',"DRC-1, concentration 2.5",-13.4888%
same,% inhibition apPOL 180',"DRC-1, concentration 5",-5.423%
same,% inhibition apPOL 180',"DRC-1, concentration 10",-7.477%
same,% inhibition apPOL 180',"DRC-1, concentration 20",7.115%
same,% inhibition apPOL 180',"DRC-1, concentration 40",55.1056%
same,% inhibition apPOL 180',"DRC-1, concentration 80",83.6554%
same,% inhibition Apo pol 5',"DRC-2, concentration 2.5",-4%
same,% inhibition Apo pol 5',"DRC-2, concentration 5",-2.32%
same,% inhibition Apo pol 5',"DRC-2, concentration 10",35%
same,% inhibition Apo pol 5',"DRC-2, concentration 20",11%
same,% inhibition Apo pol 5',"DRC-2, concentration 40",63%
same,% inhibition Apo pol 5',"DRC-2, concentration 80",65%
same,% inhibition Apol 40',"DRC-2, concentration 2.5",-1.34%
same,% inhibition Apol 40',"DRC-2, concentration 5",-1%
same,% inhibition Apol 40',"DRC-2, concentration 10",42%
same,% inhibition Apol 40',"DRC-2, concentration 20",11%
same,% inhibition Apol 40',"DRC-2, concentration 40",74%
same,% inhibition Apol 40',"DRC-2, concentration 80",75%
same,% inhibition ApPOL 90',"DRC-2, concentration 2.5",-1%
same,% inhibition ApPOL 90',"DRC-2, concentration 5",0.948%
same,% inhibition ApPOL 90',"DRC-2, concentration 10",41%
same,% inhibition ApPOL 90',"DRC-2, concentration 20",9%
same,% inhibition ApPOL 90',"DRC-2, concentration 40",75%
same,% inhibition ApPOL 90',"DRC-2, concentration 80",76%
same,% inhibition apPOL 180',"DRC-2, concentration 2.5",-2.11%
same,% inhibition apPOL 180',"DRC-2, concentration 5",-2.49%
same,% inhibition apPOL 180',"DRC-2, concentration 10",33%
same,% inhibition apPOL 180',"DRC-2, concentration 20",3.69%
same,% inhibition apPOL 180',"DRC-2, concentration 40",72%
same,% inhibition apPOL 180',"DRC-2, concentration 80",73%
same,% inhibition ApPOL 90',"conc. 2.5, DRC-2",-1%
same,% inhibition Apol 40',"conc. 5, DRC-2",-1%
same,% inhibition Apo pol 5',"conc. 20, DRC-2",11%
same,% inhibition Apol 40',"conc. 20, DRC-2",11%
same,% inhibition ApPOL 90',"conc. 40, DRC-2",75%
same,% inhibition Apol 40',"conc. 80, DRC-2",75%
same,DNA Pol,primary screen value by plate and well,36
same,DNA Pol,"primary screen value of the 186 hits, unit not given",36

# Reference: PMC9090415, “Discovery of small molecule inhibitors of Plasmodium falciparum apicoplast DNA polymerase” (Journal of Enzyme Inhibition and Medicinal Chemistry, 2022)
